Source: PMC12010006, “Subnanomolar MAS-related G protein-coupled receptor-X2/B2 antagonists with efficacy in human mast cells and disease models” (Signal Transduction and Targeted Therapy, 2025)

Test system: mouse tracheal rings
Experiment: Isometric force measurements of mouse tracheal rings on wire-myograph
Conditions: 100 µM, 10 min pre-treatment, C48/80 30 µg/mL
Description: The MRGPRX2/MRGPRB2 agonist C48/80 was previously reported to induce tracheal contractions in WT mice, a response that was absent in mice with a frameshift mutation in Mrgprb2.[53] We investigated whether this effect could be blocked by PSB-172656, the potent MRGPRX2/MRGPRB2 antagonist. Therefore, the force of tracheal contractions induced by C48/80 (30 µg/mL) in mouse tracheal rings was measured using a wire myograph, confirming the compound’s ability to […] tracheal contractions (Fig. 7c, d).
Isometric force measurements were performed as described previously.[68] In detail, tracheas of C57BL/6 mice were isolated and cut into rings in cold low-calcium physiological saline solution (PSS), containing 118 mM NaCl, 5 mM KCl, 1.2 mM MgCl2, 1.5 mM NaH2PO4, 0.16 mM CaCl2, 10 mM glucose and 24 mM Hepes (pH 7.4). Rings were mounted on a wire-myograph (Multi Myograph 620 M, Danish Myo Technology, Aarhus, Denmark) and pre-stretched to 5 mN in PSS, containing 118 mM NaCl, 5 mM KCl, 1.2 mM MgCl2, 1.5 mM NaH2PO4, 1.6 mM CaCl2, 10 mM glucose, and 24 mM Hepes (pH 7.4). After equilibration for 20 min, maximal constriction was induced by methacholine (MCh, 10 μM, A2251, Sigma-Aldrich, Germany). […] Force amplitudes were always analyzed at the strongest contraction of tracheal rings. […] Statistical significance was determined by an unpaired Student’s t-test, *P < 0.05.

CCc1c(C(C)C)[nH]c2nc3cc(F)c(F)cc3n2c1=O [Compound 24, 3-ethyl-7,8-difluoro-2-isopropylbenzo[4,5]imidazo [1,2-a] pyrimidin-4(1H)-one]
effect on C48/80-induced tracheal contractions (listed as PSB-172565): potently blocks tracheal contractions | effect on C48/80-induced tracheal contractions (listed as PSB-172656): effectively blocked the contractions
